19 compounds from PubChem BioAssay (NCI) can be followed below.

Test in all cases: NCI anticancer screen, dose series, 48 h
The test system of assay [1] is SK-MEL-5 melanoma.
Assay [2] deals with SR leukemia.
In assay [3] the test system is RPMI-8226 leukemia.
Assay [4] concerns NCI-H460 lung.
Assay [5] deals with U251 CNS.
For assay [6], the system named is SF-295 CNS.
Assay [7] concerns NCI-H522 lung.
Assay [8] has as its system UO-31 renal.
In assay [9] the test system is RXF 393 renal.
The test system of assay [10] is SNB-75 CNS.
The test system of assay [11] is HT29 colon.
Assay [12] relates to COLO 205 colon.
Assay [13] has as its system HCT-116 colon.
The test system of assay [14] is A498 renal.
In assay [15] the test system is CCRF-CEM leukemia.
The test system of assay [16] is MDA-MB-435.
Assay [17] relates to PC-3 prostate.

Molecules are shown by their SMILES.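 Results reflect a 48-hour exposure of cells in 96-well plates to compound at five concentrations. Definition used: TGI = concentration required for complete inhibition of growth.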 A value given as a limit tells only on which side of the number the result lay.

Turning to `CC(C)(C)[C@H]1CO[C@]2(c3ccccc3)[C@@H]3C[C@@H]3C(=O)N12`, the TGI in assay [1], in assay [2], in assay [3], in assay [4], in assay [5] and in [6] was above 100 µM each time. Also, the TGI in assay [7], in assay [8], in [9], in assay [10], in assay [11] and in [12] was above 100 µM each time.
On to `CCN(CC)C(=S)SCC(=O)Nc1nc2c(s1)CCCC2`, for which the TGI in [1] is 49.7 µM; in assay [2] it was 90.7 µM; in [3] it was above 100 µM; in assay [4] it was above 100 µM; in [5], above 100 µM; in [13], above 100 µM. Moreover, the TGI in assay [6] was above 100 µM; in assay [7] it was 65.3 µM; in assay [14], above 100 µM; in [15], above 100 µM; in assay [8], above 100 µM; in assay [10] it was above 100 µM. For the same compound, the TGI in [11] and in assay [12] was above 100 µM throughout.
On to `CSc1ccc(NC(=O)C2c3[nH]c4ccccc4c3C3CCC(C(C)(C)C)CC3C2C(=O)O)cc1` (stereo not given), for which the TGI stood at 66 µM in assay [1]; 25.5 µM in assay [2]; 58.6 µM in [3]; 31.8 µM in assay [5]; 27.5 µM in [13]; 38.5 µM in assay [6]. For the same compound, the TGI was 37.4 µM in [7]; 35.4 µM in assay [14]; 25.8 µM in [15]; 61.6 µM in assay [8]; 49.5 µM in [9]; 37.9 µM in [10]. Further, the TGI in assay [11] amounted to 39.1 µM; in assay [12] it was 32 µM.
As to `C=CCCCN1CCCC(C)C1=S` (stereo not given), the TGI in assay [1], in assay [2], in assay [3], in [4], in [5] and in assay [13] was above 100 µM each time. In addition, the TGI in [6], in [7], in assay [14], in [15], in [8] and in assay [9] was above 100 µM in each case. Also, the TGI in assay [10], in assay [11] and in assay [12] was above 100 µM in each case.
As to `CS(=O)(=O)OCCCSCCSCCCOS(C)(=O)=O`, the TGI in assay [1], in [2], in assay [4], in assay [5], in assay [16] and in assay [13] was above 100 µM in each case. Further, the TGI in [6], in assay [7], in assay [15], in [8], in [10] and in assay [11] was above 100 µM throughout. Also, the TGI in [17] and in [12] was above 100 µM throughout.
On to `CCOC(=O)NN(C(=O)OCC)C(=C(C1=CCCCC1)N1CCOCC1)N(NC(=O)OCC)C(=O)OCC`, for which the TGI in [2], in assay [3], in assay [4], in assay [5], in assay [16] and in assay [6] was above 100 µM throughout. For the same compound, the TGI in assay [14], in assay [8], in assay [9], in assay [10], in [11] and in assay [17] was above 100 µM each time. Moreover, the TGI in assay [12] was above 100 µM.
As to `C[n+]1c2ccccc2c(CNCC(=O)O)c2ccccc21`, the TGI in assay [1] was 14.4 µM; in assay [3], 1.52 µM; in assay [4], 14.8 µM; in assay [5], 12.5 µM; in assay [13], 1.3 µM; in [6] it was 17.2 µM. The TGI in assay [7] came to 0.307 µM; in assay [14], 7.43 µM; in assay [8], 22.8 µM; in assay [9] it was 6.5 µM; in assay [10] it was 20.9 µM; in assay [11], 12.1 µM. In addition, the TGI in assay [12] is 2.9 µM.
For the compound `CC1=NN2C(c3ccc([N+](=O)[O-])cc3)=CSC2=NC(C)(C)C1`, the TGI in assay [1], in assay [2], in assay [3], in assay [4], in assay [5] and in [13] was above 100 µM each time. For the same compound, the TGI in assay [6], in assay [7], in [14], in assay [15], in assay [8] and in assay [9] was above 100 µM in each case. The TGI in [10], in assay [11] and in [12] was above 100 µM throughout.
For the compound `ClCC[N-]CC[N-]CCCl.ClCC[N-]CC[N-]CCCl.[O-][Cl+3]([O-])([O-])O.[Zn+2]`, the TGI in assay [1] was 56.1 µM; in assay [2] it was above 100 µM; in assay [3] it was above 100 µM; in [4] it was above 71.2 µM; in assay [5], above 67.3 µM; in assay [13] it was above 62.8 µM. In addition, the TGI in assay [6] is above 100 µM; in assay [7], 27.3 µM; in [14] it was above 100 µM; in assay [15] it was 82.3 µM; in assay [8], above 72.5 µM; in assay [9], above 59.1 µM. Also, the TGI in [10] was 44.1 µM; in assay [11] it was above 100 µM; in [12] it was above 72.2 µM.
`COc1ccc(CCNC(=O)c2ccccc2C2c3ccc(OCc4ccccc4)cc3Oc3cc(OCc4ccccc4)ccc32)cc1OC`: the TGI in assay [1], in assay [2], in assay [3], in assay [5], in assay [16] and in [13] was above 100 µM each time. Besides, the TGI in [6], in [7], in [14], in assay [8], in assay [9] and in assay [11] was above 100 µM in each case. Further, the TGI in assay [17] and in assay [12] was above 100 µM throughout.
With `Cc1c2ccncc2c(C)c2c1[nH]c1ccc(Oc3ccccc3)cc12`, the TGI is 9.46 µM in assay [1]; 12.3 µM in [2]; 5.27 µM in assay [3]; 3.37 µM in assay [5]; 12.6 µM in [6]; 11.4 µM in assay [14]. Besides, the TGI in assay [15] is 9.41 µM; in assay [8], 35.2 µM; in [9], 3.84 µM; in [10], 8.73 µM; in assay [11] it was 3.84 µM.
As for `COC(=O)CC(C(C(=O)OC)C(=O)OC)N1C(=O)OC(c2ccccc2)C1c1ccccc1` (stereo not given), the TGI in [1], in assay [3], in assay [4], in assay [5], in assay [13] and in assay [6] was above 100 µM in each case. In addition, the TGI in [7], in assay [14], in assay [15], in [8], in assay [9] and in assay [10] was above 100 µM throughout. Further, the TGI in [11] and in assay [12] was above 100 µM throughout.
For `COC(=O)c1c(-c2cc(OC)c(OC)c(OC)c2)oc2ccccc2c1=O`, the TGI in [1], in assay [3], in assay [4], in [5], in assay [13] and in assay [6] was above 100 µM each time. The TGI in [7], in assay [14], in assay [15], in assay [8], in assay [9] and in [10] was above 100 µM in each case. The TGI in assay [11] and in [12] was above 100 µM each time.
In the case of `Nc1nc(N)c2ncn(CCOC(c3ccccc3)P(=O)(O)O)c2n1` (stereo not given), the TGI in [1], in [2], in [4], in assay [5], in assay [13] and in assay [6] was above 100 µM in each case. Moreover, the TGI in [7], in [14], in assay [15], in assay [8], in assay [9] and in assay [10] was above 100 µM in each case. Further, the TGI in assay [11] and in assay [12] was above 100 µM throughout.
With `N#Cc1ccc(Oc2ccccc2)cc1C#N`, the TGI was above 100 µM in assay [1]; 49.7 µM in [2]; above 100 µM in assay [3]; above 100 µM in [4]; above 100 µM in assay [5]; above 100 µM in assay [13]. Also, the TGI in assay [6] was above 100 µM; in assay [7], 57.2 µM; in [14] it was above 100 µM; in [15], 56.9 µM; in assay [8], above 100 µM; in assay [9], above 100 µM. Also, the values for the TGI in assay [10], in [11] and in assay [12] were above 100 µM, above 100 µM and 68.6 µM, respectively.
On to `CC(C)OC/N=C(/N)NC#N`, for which the TGI in assay [1] was above 100 µM; in assay [2], 49.6 µM; in assay [3], 61.2 µM; in assay [4] it was above 100 µM; in assay [5] it was above 100 µM; in assay [13], above 100 µM. Further, the TGI in [6], in assay [7], in [14], in assay [8], in assay [9] and in assay [10] was above 100 µM in each case. Also, the TGI in assay [11] and in assay [12] was above 100 µM in each case.
As to `COCN(C)c1nc(N(C)C)nc(N(C)C)n1`, the TGI in assay [1], in assay [2], in assay [3], in assay [4], in [5] and in assay [13] was above 100 µM throughout. The TGI in assay [6] is above 100 µM; in [7] it was 37 µM; in assay [14], above 100 µM; in assay [15] it was above 100 µM; in assay [8], above 100 µM; in [9], above 100 µM. Further, the TGI in [10], in [11] and in assay [12] was above 100 µM throughout.
In the case of `COc1ccc(OC)c(NC(=O)C(=O)CC(=O)c2sc(-n3nc(-c4ccccc4)cc3-c3ccccc3)nc2C)c1`, the TGI in [2], in [3], in assay [4], in assay [5], in [13] and in assay [6] was above 100 µM throughout. In addition, the TGI in assay [7], in assay [14], in assay [15], in [8], in [9] and in assay [10] was above 100 µM in each case. Further, the TGI in assay [11] and in assay [12] was above 100 µM each time.
In the case of `C[C@]12CC[C@H](O)CC1=CC[C@@H]1C2CC[C@]2(C)C(=O)NC(=O)CC12` (stereo not given in full), the TGI in [1] is above 100 µM; in [2], above 100 µM; in [3], 89.8 µM; in assay [4] it was above 100 µM; in assay [5] it was above 100 µM; in assay [13], above 100 µM. Besides, the TGI in assay [6], in [7], in assay [14], in assay [15], in [8] and in assay [9] was above 100 µM throughout. Moreover, the TGI in [10], in assay [11] and in assay [12] was above 100 µM in each case.
